In the oligonucleotide strings, read from the 5' end, every base follows the letter of its sugar. An asterisk marks phosphorothioate; unmarked linkages are phosphodiester. Other units and linkages are bracketed, terminal groups are in braces. A string of capitals states the bases alone. d = 2'-deoxy (DNA); m = 2'-O-methyl; r = 2'-OH (RNA)
Test system: PCSK9 mRNA
Assay: PCSK9 siRNA screening in HepG2 cells (lipofectamine 2000 transfection, PCSK9 mRNA by Quantigene, normalized to GAP-DH)
Format: cell-based, human
Conditions: for Mean percent remaining mRNA transcript at siRNA concentration/in cell type 30 nM/HepG2: 30 nM siRNA; for Mean percent remaining mRNA transcript at siRNA concentration/in cell type 3 nM/HepG2: 3 nM siRNA; for Mean percent remaining mRNA transcript at siRNA concentration/in cell type 100 nM/HepG2: 100 nM siRNA
How it was run: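 PCSK9 silencing was assessed in HepG2 cells by lipofectamine 2000 siRNA transfection in 96-well plates. Twenty-four hours later, lysates were analyzed with the Quantigene Explore Kit, with PCSK9 signal normalized to GAP-DH. Eight datapoints were collected per siRNA, and remaining transcript was expressed as a percentage of cells treated with an unrelated control siRNA duplex.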

Row | Substance | Mean percent remaining mRNA transcript at siRNA concentration/in cell type 30 nM/HepG2 [%] | further results
1 | AD-9631: PCSK9 siRNA (sense rCrUrCrUrGrCrCrArArArGrArUrGrUrCrArUrCdT*dT; antisense rGrArUrGrArCrArUrCrUrUrUrGrGrCrArGrArGdT*dT) | 80 | –
2 | AD-9528: PCSK9 siRNA (sense rCrGrGrUrArCrCrGrGrGrCrGrGrArUrGrArArUdT*dT; antisense rArUrUrCrArUrCrCrGrCrCrCrGrGrUrArCrCrGdT*dT) | 113 | –
3 | AD-9544: PCSK9 siRNA (sense rUrGrArGrGrArCrCrArGrCrGrGrGrUrArCrUrGdT*dT; antisense rCrArGrUrArCrCrCrGrCrUrGrGrUrCrCrUrCrAdT*dT) | 68 | –
4 | AD-9660: PCSK9 siRNA (sense rGrGrAmCrGrAmUrGmCmCmUrGmCmCmUmCmUrAmCdT*dT; antisense rGmUrArGrArGrGmCrArGrGmCrArUrCrGrUrCrCdT*dT) | 89 | Mean percent remaining mRNA transcript at siRNA concentration/in cell type 3 nM/HepG2: 79%
5 | AD-9665: PCSK9 siRNA (sense GGuGGAGGuGuAucuccuATsT; antisense uAGGAGAuAcACCUCcACCTsT; as printed in the source, key not given here) | 83 | –
6 | AD-9535: PCSK9 siRNA (sense rGrArGrUrGrArCrCrArCrCrGrGrGrArArArUrCdT*dT; antisense rGrArUrUrUrCrCrCrGrGrUrGrGrUrCrArCrUrCdT*dT) | 73 | Mean percent remaining mRNA transcript at siRNA concentration/in cell type 100 nM/HepG2: 48%
7 | AD-9760: PCSK9 siRNA (sense mCmUmCmUrGmUmUrGmCmCmUmUmUmUmUrAmCrArGdT*dT; antisense rCrUrGmUrArArArArArGrGmCrArAmCrArGrArGdT*dT) | 14 | Mean percent remaining mRNA transcript at siRNA concentration/in cell type 3 nM/HepG2: 27%
8 | AD-9543: PCSK9 siRNA (sense rCrGrCrGrUrGrCrUrCrArArCrUrGrCrCrArArGdT*dT; antisense rCrUrUrGrGrCrArGrUrUrGrArGrCrArCrGrCrGdT*dT) | 51 | –
9 | AD-9738: PCSK9 siRNA (sense rAmCmCrAmCmCrGrGrGrArArAmUmCrGrArGrGrGdT*dT; antisense rCrCrCrUrCrGrArUrUrUrCrCrCrGrGrUrGrGrUdT*dT) | 83 | –
10 | AD-9572: PCSK9 siRNA (sense rCrCrArGrGrUrGrCrUrGrCrCrUrGrCrUrArCrCdT*dT; antisense rGrGrUrArGrCrArGrGrCrArGrCrArCrCrUrGrGdT*dT) | 53 | Mean percent remaining mRNA transcript at siRNA concentration/in cell type 100 nM/HepG2: 47%
11 | AD-9623: PCSK9 siRNA (sense rGrUrCrArGrCrUrCrCrArGrGrCrGrGrUrCrCrUdT*dT; antisense rArGrGrArCrCrGrCrCrUrGrGrArGrCrUrGrArCdT*dT) | 66 | Mean percent remaining mRNA transcript at siRNA concentration/in cell type 100 nM/HepG2: 43%
12 | AD-9727: PCSK9 siRNA (sense rArGrGrGmUmCrAmUrGrGmUmCrAmCmCrGrAmCmUdT*dT; antisense rArGrUrCrGrGrUrGrArCmCrArUrGrArCrCrCrUdT*dT) | 118 | –
13 | AD-9581: PCSK9 siRNA (sense rUrGrCrGrCrGrUrGrCrUrCrArArCrUrGrCrCrAdT*dT; antisense rUrGrGrCrArGrUrUrGrArGrCrArCrGrCrGrCrAdT*dT) | 35 | –
14 | AD-9651: PCSK9 siRNA (sense rGrGrArGmUmUmUrAmUmUmCrGrGrArArArArGmCdT*dT; antisense rGrCrUrUrUrUrCrCrGrArAmUrArArArCrUrCrCdT*dT) | 58 | –
15 | AD-9583: PCSK9 siRNA (sense rCrCrCrArUrGrUrCrGrArCrUrArCrArUrCrGrAdT*dT; antisense rUrCrGrArUrGrUrArGrUrCrGrArCrArUrGrGrGdT*dT) | 42 | –
16 | AD-9571: PCSK9 siRNA (sense rGrCrCrArGrGrUrGrCrUrGrCrCrUrGrCrUrArCdT*dT; antisense rGrUrArGrCrArGrGrCrArGrCrArCrCrUrGrGrCdT*dT) | 27 | Mean percent remaining mRNA transcript at siRNA concentration/in cell type 3 nM/HepG2: 32%
17 | AD-9712: PCSK9 siRNA (sense rGrAmCrAmUmCrAmUmUrGrGmUrGmCmCmUmCmCrAdT*dT; antisense rUrGrGrArGrGmCrArCmCrArArUrGrArUrGrUrCdT*dT) | 107 | –
18 | AD-9662: PCSK9 siRNA (sense mUmUrAmUmUmCrGrGrArArArArGmCmCrArGmCmUdT*dT; antisense rArGrCrUrGrGrCrUrUrUrUrCrCrGrArAmUrArAdT*dT) | 81 | –

Row | Substance | Mean percent remaining mRNA transcript at siRNA concentration/in cell type 30 nM/HepG2 [%] | further results
19 | AD-9685: PCSK9 siRNA (sense rGmUrGrAmCmCrAmCmCrGrGrGrArArAmUmCrGrAdT*dT; antisense rUrCrGrArUrUrUrCrCrCrGrGrUrGrGrUmCrArCdT*dT) | 77 | –
20 | AD-9629: PCSK9 siRNA (sense rUrCrUrGrGrGrUrUrUrUrGrUrArGrCrArUrUrUdT*dT; antisense rArArArUrGrCrUrArCrArArArArCrCrCrArGrAdT*dT) | 23 | Mean percent remaining mRNA transcript at siRNA concentration/in cell type 3 nM/HepG2: 24%
21 | AD-9756: PCSK9 siRNA (sense rGrGrGmCrArGrGrGmUmCrAmUrGrGmUmCrAmCmCdT*dT; antisense rGrGrUrGrArCmCrArUrGrArCrCrCrUrGrCrCrCdT*dT) | 63 | –
22 | AD-9748: PCSK9 siRNA (sense mCmUrGmUmCmCmCmUmCmCmUmUrGrArGmCrAmCmCdT*dT; antisense rGrGrUrGrCrUmCrArArGrGrArGrGrGrAmCrArGdT*dT) | 103 | –
23 | AD-9637: PCSK9 siRNA (sense rGrArGrGrGrCrArGrGrGrUrCrArUrGrGrUrCrAdT*dT; antisense rUrGrArCrCrArUrGrArCrCrCrUrGrCrCrCrUrCdT*dT) | 83 | Mean percent remaining mRNA transcript at siRNA concentration/in cell type 100 nM/HepG2: 56%
24 | AD-9686: PCSK9 siRNA (sense rGrArGmUmUmUrAmUmUmCrGrGrArArArArGmCmCdT*dT; antisense rGrGrCrUrUrUrUrCrCrGrArAmUrArArArCrUrCdT*dT) | 111 | –
25 | AD-9683: PCSK9 siRNA (sense mCmCrAmCmCrGrGrGrArArAmUmCrGrArGrGrGmCdT*dT; antisense rGrCrCrCrUrCrGrArUrUrUrCrCrCrGrGrUrGrGdT*dT) | 48 | –
26 | AD-9639: PCSK9 siRNA (sense rGrUrGrCrUrGrArGrGrCrCrArCrGrArGrGrUrCdT*dT; antisense rGrArCrCrUrCrGrUrGrGrCrCrUrCrArGrCrArCdT*dT) | 30 | Mean percent remaining mRNA transcript at siRNA concentration/in cell type 3 nM/HepG2: 35%
27 | AD-9553: PCSK9 siRNA (sense rUrCrUrArGrArCrCrUrGrUrUrUrUrGrCrUrUrUdT*dT; antisense rArArArGrCrArArArArCrArGrGrUrCrUrArGrAdT*dT) | 27 | IC50: 0.02 nM; Mean percent remaining mRNA transcript at siRNA concentration/in cell type 3 nM/HepG2: 22%
28 | AD-9590: PCSK9 siRNA (sense rArCrCrArArCrUrUrUrGrGrCrCrGrCrUrGrUrGdT*dT; antisense rCrArCrArGrCrGrGrCrCrArArArGrUrUrGrGrUdT*dT) | 122 | –
29 | AD-9541: PCSK9 siRNA (sense rGrGrUrGrArGrGrGrUrGrUrCrUrArCrGrCrCrAdT*dT; antisense rUrGrGrCrGrUrArGrArCrArCrCrCrUrCrArCrCdT*dT) | 43 | –
30 | AD-9701: PCSK9 siRNA (sense mCmCrGmCmUrGmCmCrGrGmCrArAmCmUmUmCmCrGdT*dT; antisense rCrGrGrArArGrUrUrGrCrCrGrGmCrArGrCrGrGdT*dT) | 100 | –
31 | AD-9643: PCSK9 siRNA (sense GGAGGuGuAucuccuAGAcTsT; antisense GUCuAGGAGAuAcACCUCCTsT; as printed in the source, key not given here) | 40 | –
32 | AD-9586: PCSK9 siRNA (sense rGrArCrArUrCrArUrUrGrGrUrGrCrCrUrCrCrAdT*dT; antisense rUrGrGrArGrGrCrArCrCrArArUrGrArUrGrUrCdT*dT) | 104 | Mean percent remaining mRNA transcript at siRNA concentration/in cell type 100 nM/HepG2: 81%
33 | AD-9519: PCSK9 siRNA (sense rCrCrCrArGrCrCrArGrGrArUrUrCrCrGrCrGrCdT*dT; antisense rGrCrGrCrGrGrArArUrCrCrUrGrGrCrUrGrGrGdT*dT) | 78 | –
34 | AD-9661: PCSK9 siRNA (sense rGrArGmUrGrAmCmCrAmCmCrGrGrGrArArAmUmCdT*dT; antisense rGrArUrUrUrCrCrCrGrGrUrGrGrUmCrArCrUrCdT*dT) | 83 | –
35 | AD-9659: PCSK9 siRNA (sense rGrAmCmCrAmCmCrGrGrGrArArAmUmCrGrArGrGdT*dT; antisense rCrCrUrCrGrArUrUrUrCrCrCrGrGrUrGrGrUrCdT*dT) | 88 | –
36 | AD-9605: PCSK9 siRNA (sense rUrGrGrUrGrArArGrArUrGrArGrUrGrGrCrGrAdT*dT; antisense rUrCrGrCrCrArCrUrCrArUrCrUrUrCrArCrCrAdT*dT) | 27 | IC50: 0.27 nM; Mean percent remaining mRNA transcript at siRNA concentration/in cell type 3 nM/HepG2: 31%

— US20120016009A1, “Optimized Methods For Delivery Of DSRNA Targeting The PCSK9 Gene” (priority 2008, published 2012)
